Reference: the NIST ThermoML archive (doi:10.1016/j.jct.2004.12.014)
± gives the expanded uncertainty stated by the source.

Tests used:
[1] = excess molar enthalpy (molar enthalpy of mixing); xn = mol fraction of the nth substance listed; settings: 318.15 K, 101 kPa, Liquid
[2] = xn = mol fraction of the nth substance listed; settings: 318.15 K, 101 kPa, Liquid

CCCCCCCCCCC [undecane] + CCCOC(=O)CC
Settings	excess molar enthalpy [kcal/mol]	excess molar volume [m3/mol]
[1], x2 = 0.0636	0.0667 ± 0.00146	–
[1], x2 = 0.1368	0.127 ± 0.00237	–
[1], x2 = 0.2052	0.179 ± 0.00311	–
[1], x2 = 0.2811	0.228 ± 0.00382	–
[1], x2 = 0.355	0.26 ± 0.0043	–
[1], x2 = 0.4208	0.276 ± 0.00454	–
[1], x2 = 0.4796	0.283 ± 0.00478	–
[1], x2 = 0.5347	0.283 ± 0.00478	–
[1], x2 = 0.5876	0.276 ± 0.00454	–
[1], x2 = 0.6318	0.264 ± 0.00454	–
[1], x2 = 0.6804	0.246 ± 0.0043	–
[1], x2 = 0.7305	0.219 ± 0.00382	–
[1], x2 = 0.7842	0.188 ± 0.00335	–
[1], x2 = 0.8388	0.149 ± 0.00263	–
[1], x2 = 0.8946	0.104 ± 0.00201	–
[1], x2 = 0.9488	0.0549 ± 0.00127	–
[2], x2 = 0.0413	–	1.53e-07 ± 1.6e-08
[2], x2 = 0.0923	–	3.2e-07 ± 1.7e-08
[2], x2 = 0.1761	–	5.43e-07 ± 1.8e-08
[2], x2 = 0.2561	–	7.24e-07 ± 1.9e-08
[2], x2 = 0.3307	–	8.39e-07 ± 1.9e-08
[2], x2 = 0.3986	–	9.06e-07 ± 2e-08
[2], x2 = 0.4638	–	9.37e-07 ± 2e-08
[2], x2 = 0.5278	–	9.47e-07 ± 2e-08
[2], x2 = 0.587	–	9.43e-07 ± 2e-08
[2], x2 = 0.6412	–	8.99e-07 ± 2e-08
[2], x2 = 0.6944	–	8.36e-07 ± 1.9e-08
[2], x2 = 0.744	–	7.6e-07 ± 1.9e-08
[2], x2 = 0.7913	–	6.62e-07 ± 1.9e-08
[2], x2 = 0.8364	–	5.52e-07 ± 1.8e-08
[2], x2 = 0.8799	–	4.45e-07 ± 1.8e-08
[2], x2 = 0.9196	–	2.93e-07 ± 1.7e-08
[2], x2 = 0.9603	–	1.75e-07 ± 1.6e-08

CCCCCCCCCCCCCCCCC [heptadecane] + CCCOC(=O)CC
Settings	excess molar enthalpy [kcal/mol]	excess molar volume [m3/mol]
[1], x2 = 0.1025	0.107 ± 0.00206	–
[1], x2 = 0.2064	0.193 ± 0.00335	–
[1], x2 = 0.3097	0.268 ± 0.00454	–
[1], x2 = 0.4012	0.318 ± 0.00526	–
[1], x2 = 0.4828	0.345 ± 0.00574	–
[1], x2 = 0.5438	0.354 ± 0.00598	–
[1], x2 = 0.5906	0.353 ± 0.00574	–
[1], x2 = 0.6218	0.348 ± 0.00574	–
[1], x2 = 0.6489	0.34 ± 0.00574	–
[1], x2 = 0.6819	0.322 ± 0.00526	–
[1], x2 = 0.7208	0.3 ± 0.00502	–
[1], x2 = 0.7615	0.276 ± 0.00454	–
[1], x2 = 0.8015	0.244 ± 0.00406	–
[1], x2 = 0.8436	0.205 ± 0.00359	–
[1], x2 = 0.8861	0.163 ± 0.00287	–
[1], x2 = 0.9283	0.11 ± 0.00215	–
[1], x2 = 0.9659	0.0516 ± 0.00131	–
[2], x2 = 0.0801	–	2.62e-07 ± 1.7e-08
[2], x2 = 0.1272	–	4.01e-07 ± 1.7e-08
[2], x2 = 0.2396	–	6.78e-07 ± 1.9e-08
[2], x2 = 0.3349	–	8.74e-07 ± 2e-08
[2], x2 = 0.4168	–	9.74e-07 ± 2e-08
[2], x2 = 0.4924	–	1.046e-06 ± 2e-08
[2], x2 = 0.5597	–	1.06e-06 ± 2e-08
[2], x2 = 0.6205	–	1.048e-06 ± 2e-08
[2], x2 = 0.6702	–	1.016e-06 ± 2e-08
[2], x2 = 0.7236	–	9.42e-07 ± 2e-08
[2], x2 = 0.7691	–	8.65e-07 ± 2e-08
[2], x2 = 0.81	–	7.81e-07 ± 1.9e-08
[2], x2 = 0.8486	–	6.76e-07 ± 1.9e-08
[2], x2 = 0.8816	–	5.66e-07 ± 1.8e-08
[2], x2 = 0.9135	–	4.36e-07 ± 1.8e-08
[2], x2 = 0.9437	–	3.04e-07 ± 1.7e-08
[2], x2 = 0.972	–	1.85e-07 ± 1.6e-08

CCC(=O)OC [methyl propanoate] + CCCCCCC
Settings	excess molar enthalpy [kcal/mol]	excess molar volume [m3/mol]
[1], x1 = 0.0703	0.0855 ± 0.00174	–
[1], x1 = 0.154	0.176 ± 0.00311	–
[1], x1 = 0.2369	0.249 ± 0.0043	–
[1], x1 = 0.3018	0.296 ± 0.00502	–
[1], x1 = 0.3693	0.331 ± 0.0055	–
[1], x1 = 0.4258	0.35 ± 0.00574	–
[1], x1 = 0.4809	0.362 ± 0.00598	–
[1], x1 = 0.5084	0.363 ± 0.00598	–
[1], x1 = 0.5258	0.363 ± 0.00598	–
[1], x1 = 0.5447	0.361 ± 0.00598	–
[1], x1 = 0.586	0.353 ± 0.00598	–
[1], x1 = 0.6301	0.34 ± 0.00574	–
[1], x1 = 0.6752	0.32 ± 0.00526	–
[1], x1 = 0.7232	0.295 ± 0.00502	–
[1], x1 = 0.7744	0.259 ± 0.0043	–
[1], x1 = 0.8241	0.215 ± 0.00382	–
[1], x1 = 0.8704	0.168 ± 0.00311	–
[1], x1 = 0.9177	0.112 ± 0.00217	–
[1], x1 = 0.9639	0.0537 ± 0.00131	–
[2], x1 = 0.0406	–	2.5e-07 ± 1.7e-08
[2], x1 = 0.0927	–	5.08e-07 ± 1.8e-08
[2], x1 = 0.1719	–	8.36e-07 ± 1.9e-08
[2], x1 = 0.248	–	1.063e-06 ± 2e-08
[2], x1 = 0.3249	–	1.222e-06 ± 2.1e-08
[2], x1 = 0.3904	–	1.27e-06 ± 2.1e-08
[2], x1 = 0.4571	–	1.288e-06 ± 2.1e-08
[2], x1 = 0.5214	–	1.254e-06 ± 2.1e-08
[2], x1 = 0.5761	–	1.192e-06 ± 2.1e-08
[2], x1 = 0.6333	–	1.105e-06 ± 2.1e-08
[2], x1 = 0.6853	–	1.008e-06 ± 2e-08
[2], x1 = 0.7372	–	9.01e-07 ± 2e-08
[2], x1 = 0.7844	–	7.75e-07 ± 1.9e-08
[2], x1 = 0.8305	–	6.37e-07 ± 1.8e-08
[2], x1 = 0.8748	–	4.85e-07 ± 1.8e-08
[2], x1 = 0.9184	–	3.36e-07 ± 1.7e-08
[2], x1 = 0.9596	–	1.83e-07 ± 1.6e-08
